# EP0908457B1, “3-(1,2-benzisothiazol- and isoxazol-5-Y1)-2,4(1H,3H)-pyrimidinedione or thione and 3-(1,2-benzisothiazol- and isoxazol-5-y1)-4(3H)-pyrimidinone or thione herbicidal agents” (BASF AKTIENGESELLSCHAFT, priority 1997, dated 1999)
# How the values were obtained:
# [1] = test system: Cyperus serotinus, Rottb.; test: Preemergence weed control under flooded paddy conditions, CYPSE (Flatsedge); type: in vivo; further: meaning of each grade not given here
# [2] = test system: Echinochloa oryzoides (Ard.) Fritsch.; test: Preemergence weed control under flooded paddy conditions, ECHORC (Watergrass (Calif.)); type: in vivo; conditions: flooded paddy; further: meaning of each grade not given here
# [3] = test system: Sagittaria pygmaea, L.; test: Preemergence weed control under flooded paddy conditions, SAGPY (Arrowhead (Pygmaea)); type: in vivo; conditions: flooded paddy; further: meaning of each grade not given here
# [4] = test system: Monochoria vaginalis, Presl.; test: Preemergence weed control under flooded paddy conditions, MOOVA (Monochoria); type: in vivo; conditions: flooded paddy; further: meaning of each grade not given here
# [5] = test system: Oryza sativa, (L.) Tebonnet; test: Rice tolerance to post-transplant applications under flooded paddy conditions (Example 187), ORYSAT (Rice, Tebonnet); on herbicidal effect rating ORYSAT: meaning of each grade not given here
# [6] = test system: Cyperus iria; test: Preemergence weed control under flooded paddy conditions, CYPIR (Rice Flatsedge); type: in vivo; conditions: flooded paddy; further: meaning of each grade not given here
# [7] = Rate 0.0320 kg/ha, preemergence weeds, rated three to four weeks after treatment
# [8] = Rate 0.0620 kg/ha, preemergence weeds, rated three to four weeks after treatment
# [9] = Rate 0.1250 kg/ha, preemergence weeds, rated three to four weeks after treatment
# [10] = Rate 0.2500 kg/ha, preemergence weeds, rated three to four weeks after treatment
# [11] = 0.0313 kg/ha, preemergence weeds, rated three to four weeks after treatment
# [12] = 0.0625 kg/ha, preemergence weeds, rated three to four weeks after treatment
# [13] = 0.1250 kg/ha, preemergence weeds, rated three to four weeks after treatment
# [14] = 0.2500 kg/ha, preemergence weeds, rated three to four weeks after treatment
# [15] = 0.0313 kg/ha, rated three to four weeks after treatment
# [16] = 0.0625 kg/ha, rated three to four weeks after treatment
# [17] = 0.1250 kg/ha, rated three to four weeks after treatment
# [18] = 0.2500 kg/ha, rated three to four weeks after treatment
# [19] = 0.0313 kg/ha, preemergence, rated three to four weeks after treatment
# [20] = 0.0625 kg/ha, preemergence, rated three to four weeks after treatment
# [21] = 0.1250 kg/ha, preemergence, rated three to four weeks after treatment
# [22] = 0.2500 kg/ha, preemergence, rated three to four weeks after treatment
# [23] = Rate 0.0620 kg/ha, preemergence, rated 3-4 weeks after treatment
# [24] = Rate 0.1250 kg/ha, preemergence, rated 3-4 weeks after treatment
# [25] = Rate 0.2500 kg/ha, preemergence, rated 3-4 weeks after treatment
# [26] = Rate 0.5000 kg/ha, preemergence, rated 3-4 weeks after treatment
# [27] = Rate 0.0320 kg/ha, preemergence, rated 3-4 weeks after treatment
# [28] = Rate 0.0320 kg/ha, rated 3-4 weeks after treatment
# [29] = Rate 0.0620 kg/ha, rated 3-4 weeks after treatment
# [30] = Rate 0.1250 kg/ha, rated 3-4 weeks after treatment
# [31] = Rate 0.2500 kg/ha, rated 3-4 weeks after treatment
# [32] = Rate 0.5000 kg/ha, rated 3-4 weeks after treatment
smiles,measurement,setting,value
"COC(=O)c1nsc2ccc(-n3c(=O)cc(C(F)(F)F)n(C)c3=O)cc12 [Example 318, 1,2-Benzisothiazole-3-carboxylic acid, 5-[3,6-dihydro-3-methyl-2,6-dioxo-4-(trifluoromethyl)-1(2H)-pyrimidinyl]-, methyl ester]","herbicidal effect rating, CYPSE",[1]; [7],0.0
same,"herbicidal effect rating, CYPSE",[1]; [8],0.0
same,"herbicidal effect rating, CYPSE",[1]; [9],0.0
same,"herbicidal effect rating, CYPSE",[1]; [10],9.0
same,"herbicidal effect rating, ECHORC",[2]; [7],0.0
same,"herbicidal effect rating, ECHORC",[2]; [8],3.0
same,"herbicidal effect rating, ECHORC",[2]; [9],5.0
same,"herbicidal effect rating, ECHORC",[2]; [10],5.0
same,"herbicidal effect rating, SAGPY",[3]; [7],0.0
same,"herbicidal effect rating, SAGPY",[3]; [8],0.0
same,"herbicidal effect rating, SAGPY",[3]; [9],0.0
same,"herbicidal effect rating, SAGPY",[3]; [10],4.0
same,"herbicidal effect rating, MOOVA",[4]; [7],4.0
same,"herbicidal effect rating, MOOVA",[4]; [8],6.0
same,"herbicidal effect rating, MOOVA",[4]; [9],9.0
same,"herbicidal effect rating, MOOVA",[4]; [10],9.0
same,herbicidal effect rating ORYSAT,"[5]; Rate 0.0320 kg/ha, rated three to four weeks after treatment",5.0
same,herbicidal effect rating ORYSAT,"[5]; Rate 0.0620 kg/ha, rated three to four weeks after treatment",5.0
same,herbicidal effect rating ORYSAT,"[5]; Rate 0.1250 kg/ha, rated three to four weeks after treatment",5.0
same,herbicidal effect rating ORYSAT,"[5]; Rate 0.2500 kg/ha, rated three to four weeks after treatment",9.0
same,"herbicidal effect rating, CYPIR",[6]; [7],0.0
same,"herbicidal effect rating, CYPIR",[6]; [8],2.0
same,"herbicidal effect rating, CYPIR",[6]; [9],5.0
same,"herbicidal effect rating, CYPIR",[6]; [10],6.0
"COCCOC(=O)COc1ccc(C)cc1-c1nsc2ccc(-n3c(=O)cc(C(F)(F)F)n(C)c3=O)cc12 [Example 191, 2-Methoxyethyl {{2-{5-[3,6-dihydro-3-methyl-2,6-dioxo-4-(trifluoromethyl)-1(2H)-pyrimidinyl]-1,2-benzisothiazol-3-yl}-p-tolyl}oxy}acetate]","herbicidal effect rating, CYPSE",[1]; [11],0.0
same,"herbicidal effect rating, CYPSE",[1]; [12],0.0
same,"herbicidal effect rating, CYPSE",[1]; [13],0.0
same,"herbicidal effect rating, ECHORC",[2]; [11],0.0
same,"herbicidal effect rating, ECHORC",[2]; [12],2.0
same,"herbicidal effect rating, ECHORC",[2]; [13],4.0
same,"herbicidal effect rating, ECHORC",[2]; [14],7.0
same,"herbicidal effect rating, SAGPY",[3]; [11],0.0
same,"herbicidal effect rating, SAGPY",[3]; [12],0.0
same,"herbicidal effect rating, SAGPY",[3]; [13],0.0
same,"herbicidal effect rating, SAGPY",[3]; [14],0.0
same,"herbicidal effect rating, MOOVA",[4]; [11],9.0
same,"herbicidal effect rating, MOOVA",[4]; [12],9.0
same,"herbicidal effect rating, MOOVA",[4]; [13],9.0
same,"herbicidal effect rating, MOOVA",[4]; [14],9.0
same,"herbicidal effect rating, ORYSAT (rice tolerance)",[5]; [15],1.0
same,"herbicidal effect rating, ORYSAT (rice tolerance)",[5]; [16],2.0
same,"herbicidal effect rating, ORYSAT (rice tolerance)",[5]; [17],3.0
same,"herbicidal effect rating, ORYSAT (rice tolerance)",[5]; [18],6.0
same,"herbicidal effect rating, CYPIR",[6]; [11],0.0
same,"herbicidal effect rating, CYPIR",[6]; [12],0.0
same,"herbicidal effect rating, CYPIR",[6]; [13],2.0
same,"herbicidal effect rating, CYPIR",[6]; [14],4.0
"COC(=O)C(C)Oc1c(C)cc(C)cc1-c1nsc2ccc(-n3c(=O)cc(C(F)(F)F)n(C)c3=O)cc12 (stereo not shown) [Example 27, Methyl 2-{{6-{5-[3,6-dihydro-3-methyl-2,6-dioxo-4-(trifluoromethyl)-1(2H)-pyrimidinyl]-1,2-benzisothiazol-3-yl}-2,4-xylyl}oxy}propionate]","herbicidal effect rating, CYPSE",[1]; [19],0.0
same,"herbicidal effect rating, CYPSE",[1]; [20],0.0
same,"herbicidal effect rating, CYPSE",[1]; [21],0.0
same,"herbicidal effect rating, CYPSE",[1]; [22],2.0
same,"herbicidal effect rating, ECHORC",[2]; [19],6.0
same,"herbicidal effect rating, ECHORC",[2]; [20],7.0
same,"herbicidal effect rating, ECHORC",[2]; [21],9.0
same,"herbicidal effect rating, ECHORC",[2]; [22],9.0
same,"herbicidal effect rating, SAGPY",[3]; [19],0.0
same,"herbicidal effect rating, SAGPY",[3]; [20],0.0
same,"herbicidal effect rating, SAGPY",[3]; [21],2.0
same,"herbicidal effect rating, SAGPY",[3]; [22],4.0
same,"herbicidal effect rating, MOOVA",[4]; [19],8.0
same,"herbicidal effect rating, MOOVA",[4]; [20],9.0
same,"herbicidal effect rating, MOOVA",[4]; [21],9.0
same,"herbicidal effect rating, MOOVA",[4]; [22],9.0
same,"herbicidal effect rating, ORYSAT (rice tolerance)",[5]; [15],2.0
same,"herbicidal effect rating, ORYSAT (rice tolerance)",[5]; [16],3.0
same,"herbicidal effect rating, ORYSAT (rice tolerance)",[5]; [17],5.0
same,"herbicidal effect rating, ORYSAT (rice tolerance)",[5]; [18],6.0
same,"herbicidal effect rating, CYPIR",[6]; [19],2.0
same,"herbicidal effect rating, CYPIR",[6]; [20],4.0
same,"herbicidal effect rating, CYPIR",[6]; [21],6.0
same,"herbicidal effect rating, CYPIR",[6]; [22],9.0
"CNC(=O)COc1ccccc1-c1nsc2ccc(-n3c(=O)cc(C(F)(F)F)n(C)c3=O)cc12 [Example 562, Acetamide, 2-{o-{5-[3,6-dihydro-3-methyl-2,6-dioxo-4-(trifluoromethyl)-1(2H)-pyrimidinyl]-1,2-benzisothiazol-3-yl}phenoxy}-N-methyl-]","herbicidal effect rating, CYPSE",[1]; [23],4.0
same,"herbicidal effect rating, CYPSE",[1]; [24],9.0
same,"herbicidal effect rating, CYPSE",[1]; [25],9.0
same,"herbicidal effect rating, CYPSE",[1]; [26],9.0
same,"herbicidal effect rating, ECHORC",[2]; [27],2.7
same,"herbicidal effect rating, ECHORC",[2]; [23],5.1
same,"herbicidal effect rating, ECHORC",[2]; [24],5.1
same,"herbicidal effect rating, ECHORC",[2]; [25],9.0
same,"herbicidal effect rating, ECHORC",[2]; [26],9.0
same,"herbicidal effect rating, SAGPY",[3]; [27],0.0
same,"herbicidal effect rating, SAGPY",[3]; [23],0.0
same,"herbicidal effect rating, SAGPY",[3]; [24],5.0
same,"herbicidal effect rating, SAGPY",[3]; [25],7.0
same,"herbicidal effect rating, SAGPY",[3]; [26],0.0
same,"herbicidal effect rating, MOOVA",[4]; [27],9.0
same,"herbicidal effect rating, MOOVA",[4]; [23],9.0
same,"herbicidal effect rating, MOOVA",[4]; [24],9.0
same,"herbicidal effect rating, MOOVA",[4]; [25],9.0
same,"herbicidal effect rating, MOOVA",[4]; [26],9.0
same,herbicidal effect rating ORYSAT,[5]; [28],2.0
same,herbicidal effect rating ORYSAT,[5]; [29],3.0
same,herbicidal effect rating ORYSAT,[5]; [30],4.0
same,herbicidal effect rating ORYSAT,[5]; [31],9.0
same,herbicidal effect rating ORYSAT,[5]; [32],6.0
same,"herbicidal effect rating, CYPIR",[6]; [27],2.0
same,"herbicidal effect rating, CYPIR",[6]; [23],7.0
same,"herbicidal effect rating, CYPIR",[6]; [24],9.0
same,"herbicidal effect rating, CYPIR",[6]; [25],9.0
same,"herbicidal effect rating, CYPIR",[6]; [26],3.0
"Cc1ccc(OCC(=O)c2ccc(OC(F)F)cc2)c(-c2nsc3ccc(-n4c(=O)cc(C(F)(F)F)n(C)c4=O)cc23)c1 [Example 543, 2,4(1H,3H)-Pyrimidinedione, 3-{3-{6-{[p-(difluoromethoxy)phenacyl]oxy}-m-tolyl}-1,2-benzisothiazol-5-yl}-1-methyl-6-(trifluoromethyl)-]","herbicidal effect rating, CYPSE",[1]; [27],0.0
same,"herbicidal effect rating, CYPSE",[1]; [23],0.0
same,"herbicidal effect rating, CYPSE",[1]; [24],0.0
same,"herbicidal effect rating, CYPSE",[1]; [25],0.0
same,"herbicidal effect rating, CYPSE",[1]; [26],0.0
same,"herbicidal effect rating, ECHORC",[2]; [27],2.1
same,"herbicidal effect rating, ECHORC",[2]; [23],2.9
same,"herbicidal effect rating, ECHORC",[2]; [24],4.0
same,"herbicidal effect rating, ECHORC",[2]; [25],7.0
same,"herbicidal effect rating, ECHORC",[2]; [26],9.0
same,"herbicidal effect rating, SAGPY",[3]; [27],0.0
same,"herbicidal effect rating, SAGPY",[3]; [23],0.0
same,"herbicidal effect rating, SAGPY",[3]; [24],0.0
same,"herbicidal effect rating, SAGPY",[3]; [25],0.0
same,"herbicidal effect rating, SAGPY",[3]; [26],0.0
same,"herbicidal effect rating, MOOVA",[4]; [27],9.0
same,"herbicidal effect rating, MOOVA",[4]; [23],9.0
same,"herbicidal effect rating, MOOVA",[4]; [24],9.0
same,"herbicidal effect rating, MOOVA",[4]; [25],9.0
same,"herbicidal effect rating, MOOVA",[4]; [26],9.0
same,herbicidal effect rating ORYSAT,[5]; [28],0.0
same,herbicidal effect rating ORYSAT,[5]; [29],0.0
same,herbicidal effect rating ORYSAT,[5]; [30],1.0
same,herbicidal effect rating ORYSAT,[5]; [31],2.0
same,herbicidal effect rating ORYSAT,[5]; [32],2.0
same,"herbicidal effect rating, CYPIR",[6]; [27],2.0
same,"herbicidal effect rating, CYPIR",[6]; [23],6.0
same,"herbicidal effect rating, CYPIR",[6]; [24],7.0
same,"herbicidal effect rating, CYPIR",[6]; [25],8.0
same,"herbicidal effect rating, CYPIR",[6]; [26],3.0
